What was measured:
[1] = system: APT73 (SEQ ID NO: 4) variant APT73.13 (S205R, G282R, A283C, S284L; residues 285 onward removed from the C-terminus), SEQ ID NO: 36; assay: Kinetic characterization of purified enzyme with OA and GPP as substrates; assay type: biochemical; conditions: APT73.13, purified enzyme
Procedure: (§1) In order to compare the enzyme's activities more accurately, larger cultures of the best hits and controls from the first screen were grown and the enzymes were purified according to the following protocol. Glycerol stocks of each recombinant strain were used to inoculate 2 mL of LB with 50 μg/mL kanamycin. […]. The cultures were grown at 37° C. with 250 rpm shaking until an OD600 of approximately 0.8-1. At this point, the cultures were transferred to a shaker at room temperature for 30 min, after which they were induced with 0.25 mM IPTG. After 16 h at 150 rpm shaking, the cells were pelleted by centrifugation
(§2) Cell pellets were resuspended in 10 mL lysis buffer (B-PER with 5 mM MgCl2, 100 μg/mL lysozyme, and 2 μL/mL DNaseI (TURBO DNase ThermoFisher)). After incubation at room temperature for 10 min, the cell debris were removed by centrifugation at 4750 rpm for 10 min at 4° C. Lysates were loaded in pre-equilibrated cobalt spin columns (ThermoFisher, HisPur Cobalt spin column, 1 mL) and tagged proteins were purified according to manufacturer's protocol. The eluted proteins were exchanged into the final buffer (TrisHCl 25 mM, 5 mM MgCl2, 150 mM NaCl 10% v/v glycerol) using Amicon Ultra 15 centrifugal filters (10 kDa MWCO). Proteins can be stored at −20° C. for at least a week.
(§3) Selected mutants from the previous screenings were cloned in E. coli vectors and were purified as described in Example 3.

[2] = system: APT73 (SEQ ID NO: 4) variant APT73.30 (S205R, S223A, K225H, A260G, Y276L, G282R, A283C, S284L; residues 285 onward removed from the C-terminus), SEQ ID NO: 56; assay: as above; assay type: biochemical; conditions: APT73.30, purified enzyme
Procedure: as §1, §2, §3

[3] = system: APT73 (SEQ ID NO: 4) variant APT73.47 (A156I, S205R, S223A, K225H, A260G, Y276L, G282R, A283C, S284L; residues 285 onward removed from the C-terminus), SEQ ID …; assay: as above; assay type: biochemical; conditions: APT73.47, purified enzyme
Procedure: as §1, §2, §3

[4] = system: APT73 (SEQ ID NO: 4) variant APT73.52 (S205R, S223A, K225H, A260G, Y276E, G282R, A283C, S284L; residues 285 onward removed from the C-terminus), SEQ ID NO: 69; assay: as above; assay type: biochemical; conditions: APT73.52, purified enzyme
Procedure: as §1, §2, §3

[5] = system: APT89, aromatic prenyltransferase, wild type, SEQ ID NO: 2 (expressed with His tag: SEQ ID NO: 9, 81); assay: as above; assay type: biochemical
Procedure: as §1, §2, §3

[6] = system: NphB, aromatic prenyltransferase from Streptomyces sp. (strain CL190), wild type, Uniprot ID: Q4R2T2, SEQ ID NO: 20; conditions: OA and GPP as substrates, from literature (Valliere et al. Nature Commun. 2019, 10, 565); cited from earlier work

Row | SMILES | Kcat (CBGA) [1] [s⁻¹] | Kcat (CBGA) [2] [s⁻¹] | Kcat (CBGA) [3] [s⁻¹] | Kcat (CBGA) [4] [s⁻¹] | Kcat (CBGA) [5] [s⁻¹] | Km [1] [µM] | Km [2] [µM] | Km [3] [µM] | Km [4] [µM] | Km [5] [µM] | Km [6] [µM]
1 | CCCCCc1cc(O)c(C/C=C(\C)CCC=C(C)C)c(O)c1C(=O)O [CBGA, cannabigerolic acid] | 0.049 | 0.113 | 0.175 | 0.08 | 0.001 | – | – | – | – | – | –
2 | CCCCCc1cc(O)cc(O)c1C(=O)O [OA, olivetolic acid] | – | – | – | – | – | 1100 ± 93 | 501 ± 88 | 205 ± 165 | 101 ± 14 | 33 ± 4 | 640

— patent publication US20250346871A1, “PRENYLTRANSFERASES AND METHODS OF MAKING AND USE THEREOF” (priority 2020, published 2025)
